Measurements reported in publication PMC8351955, “Targeting Mycobacterium tuberculosis response to environmental cues for the development of effective antitubercular drugs” (PLoS Biology, 2021).
Like-named read-outs stand apart in the source and are kept apart here.

Columns and labels:
[1] = tested on: CDC1551(rv2390c′::GFP) reporter Mtb strain, response to high [Cl−]; assay: microbe, parasite or virus in culture; type: cell-based, Mycobacterium tuberculosis; settings: Mycobacterium tuberculosis, 144 h; for activity at 20 µM: read-out: rv2390c'::GFP validation assay NPA% at 20 µM compound
[2] = tested on: CDC1551(rv1405c′::GFP) reporter Mtb strain; assay: microbe, parasite or virus in culture; type: cell-based, Mycobacterium tuberculosis; settings: Mycobacterium tuberculosis; for activity at 10 µM: read-out: rv1405c'::GFP secondary assay NPA% at 10 µM compound; for activity at 20 µM: read-out: rv1405c'::GFP secondary assay NPA% at 20 µM compound
[3] = pH 6.4, […], DMSO positive control = 100%, read-out: Primary screen rv2390c'::GFP NPA%
[4] = 10 µM, pH 6.4, 250 mM NaCl, 6 days, read-out: rv2390c'::GFP validation assay NPA% at 10 µM compound

Row | SMILES | activity at 10 µM [1, 3] | activity at 10 µM [1, 4] | activity at 20 µM ([1]; pH 6.4, 250 mM NaCl, 6 days) | activity at 10 µM [2] | activity at 20 µM [2]
1 | COC(=O)c1sc(NS(=O)(=O)c2ccc(S(C)(=O)=O)c(F)c2)nc1C [RU-0208648, COC(=O)C1=C(C)N=C(NS(=O)(=O)C2=CC(F)=C(C=C2)S(C)(=O)=O)S1] | 36.7% | 55.2 ± 3.9% | 38.5 ± 6.3% | 45.2 ± 2.1% | 13.7 ± 2.5%
2 | CCNC(=O)CSc1ccc2c3c(cccc13)C(=O)c1ccccc1-2 [RU-0209034, CCNC(=O)CSC1=C2C=CC=C3C(=O)C4=C(C=CC=C4)C(C=C1)=C23] | 182% | 128 ± 15.3% | 199 ± 7.5% | 183 ± 12.7% | 401 ± 7.5%
3 | O=C(O)c1cc2ccccc2cc1NS(=O)(=O)N1CCCCC1 [RU-0210069, OC(=O)C1=C(NS(=O)(=O)N2CCCCC2)C=C2C=CC=CC2=C1] | 44.6% | 66.4 ± 3.4% | 58.6 ± 5.9% | 52.8 ± 1.5% | 31.2 ± 2.6%
4 | COc1ccc(Cl)cc1-c1cc(NC(=O)c2c(C)noc2C)[nH]n1 [RU-0210243, COC1=C(C=C(Cl)C=C1)C1=NNC(NC(=O)C2=C(C)ON=C2C)=C1] | 254% | 211 ± 11.6% | 357 ± 20% | 342.7 ± 3.1% | 737 ± 25.3%
5 | Cc1ccc2cc(S(=O)(=O)NCCn3nc(C)c(Cl)c3C)ccc2c1 [RU-0211306, CC1=NN(CCNS(=O)(=O)C2=CC3=C(C=C2)C=C(C)C=C3)C(C)=C1Cl] | 154% | 122 ± 3.2% | 156 ± 2.1% | 84.4 ± 8.8% | 99.4 ± 9.4%
6 | CCOC(=O)C(C)Sc1nc2c(cnn2-c2ccccc2)c(=O)[nH]1 (centres unmarked) [RU-0212119, CCOC(=O)C(C)SC1=NC2=C(C=NN2C2=CC=CC=C2)C(=O)N1] | 34.7% | 48.1 ± 4.6% | 40.2 ± 4.8% | 33.4 ± 2.2% | 14.5 ± 3.4%
7 | Cc1oc(C(=O)Nc2nnc(C(F)(F)F)[nH]2)cc1S(=O)(=O)N1CCCC1 [RU-0213804, CC1=C(C=C(O1)C(=O)NC1=NN=C(N1)C(F)(F)F)S(=O)(=O)N1CCCC1] | 31.2% | 54.8 ± 1.2% | 42.3 ± 1% | 39.8 ± 7.2% | 21.3 ± 6%
8 | CCCc1ccccc1NC(N)=S [RU-0214166, CCCC1=C(NC(N)=S)C=CC=C1] | 34.1% | 56.8 ± 5.8% | 31.6 ± 12.3% | 61.8 ± 0.5% | 111 ± 15.1%
9 | COCCCC(=O)Nc1cccc(NC2CCCC2)c1 [RU-0215502, COCCCC(=O)NC1=CC(NC2CCCC2)=CC=C1] | 216% | 152 ± 5% | 276 ± 16.4% | 342 ± 33.3% | 804 ± 46.8%
10 | CC1(C)CC2CC(C)(CN2CC(O)COc2ccc(F)cc2Cl)C1 (centres unmarked) [RU-0218667, CC12CC(CC(C)(C)C1)N(CC(O)COC1=C(Cl)C=C(F)C=C1)C2] | 154% | 118 ± 1.5% | 173 ± 5.5% | 129 ± 4.5% | 233 ± 4.2%
11 | OC1(c2ccccc2)CCN(Cc2cnc3c(-c4ccccc4)cnn3c2)CC1 [RU-0224846, OC1(CCN(CC2=CN3N=CC(=C3N=C2)C2=CC=CC=C2)CC1)C1=CC=CC=C1] | 153% | 118 ± 10.8% | 159 ± 15.9% | 101 ± 18% | 140 ± 37.5%
12 | CCCC(C)c1nnc(NC(=O)c2nnc3nc(C)cc(C)n23)s1 (centres unmarked) [RU-0225311, CCCC(C)C1=NN=C(NC(=O)C2=NN=C3N=C(C)C=C(C)N23)S1] | 155% | 116 ± 6.7% | 195 ± 6.5% | 110 ± 9.7% | 137 ± 16.9%
13 | CC(C)Cc1cc(C(=O)N2CCOC(CCCc3ccccc3)C2)[nH]n1 (centres unmarked) [RU-0230474, CC(C)CC1=NNC(=C1)C(=O)N1CCOC(CCCC2=CC=CC=C2)C1] | 198% | 118 ± 12.7% | 229 ± 26.9% | 98.4 ± 7.5% | 172 ± 14.2%
14 | CCCn1ncc(C(=O)NC(C)C(=O)Nc2ccc(F)cc2C)c1C (centres unmarked) [RU-0232065, CCCN1N=CC(C(=O)NC(C)C(=O)NC2=CC=C(F)C=C2C)=C1C] | 154% | 119 ± 6.6% | 147 ± 14.2% | 91.3 ± 9.4% | 98.3 ± 13%
15 | NC(=O)c1cc2c(cc1-c1cccc(C(F)(F)F)c1)OCO2 [RU-0234167, NC(=O)C1=CC2=C(OCO2)C=C1C1=CC=CC(=C1)C(F)(F)F] | 343% | 221 ± 6.7% | 383 ± 10.4% | 201 ± 15% | 291 ± 18.7%
16 | CCCc1oncc1C(=O)NC1CC(=O)N(CCc2ccc(F)cc2)C1 (centres unmarked) [RU-0245406, CCCC1=C(C=NO1)C(=O)NC1CN(CCC2=CC=C(F)C=C2)C(=O)C1] | 172% | 126 ± 7.5% | 163 ± 6.6% | 87.7 ± 9% | 114 ± 25.7%
